Data as given in patent US6506734B1, “20(S) camptothecin glycoconjugates” (Bayer Aktiengesellschaft, priority 1997, dated 2003).
Where “and” joins values, the source holds several entries; their conditions need not be identical. Equal entries are not always repeated. Structures can show the parent of a compound that is named as a salt. Where two headings read alike, the source gives them in different places.

What was measured:
HT 29 = experiment: Growth inhibition test (MTT) for cytotoxic properties, HT 29; details: read-out: IC50/nM HT 29
Method: (§1) The human large intestine cell lines SW 480 and HT 29 (ATCC No. CCL 228 and HBT 38) and the mouse melanoma cell line B16F10 (CRL 6475) were grown in Roux dishes in RPMI 1640 medium with addition of 10% FCS. They were then trypsinized and taken up in RPMI plus 10% FCS to a cell count of 50,000 cells/ml for SW 480 and HT 29 and 20,000 cells for B16F10. 100 μl of cell suspension/well were added to a 96 microwell plate and incubated for 1 day at 37° C. in a CO2 incubator. A further 100 μl of RPMI medium and 1 μl of DMSO containing the test substances were then added. The growth was checked after day 6. To do this, 25 μl of MTT solution (3-(4,5-dimethylthiazol-2-yl)-2,5-diphenyltetrazolium bromide) having a starting concentration of 5 mg/ml of H2O were added to each microwell. Incubation was carried out for 5 hours in a CO2 incubator at 37° C. The medium was then aspirated and 100 μl of i-propanol/well were added. After shaking for 30 min with 100 μl of H2O, the extinction was measured at 595 nm using a multiplate reader (Bio.) 3550 UV.

B16F10 = experiment: Growth inhibition test (MTT) for cytotoxic properties, B16F10; details: read-out: IC50/nM B16F10
Method: as §1

SW 480 = experiment: Growth inhibition test (MTT) for cytotoxic properties, SW 480; details: read-out: IC50/nM SW 480
Method: as §1

[1] = system: mouse bone marrow stem cells; experiment: Inhibition of the CSF-induced proliferation of mouse bone marrow stem cells; details: recombinant murine GM-CSF, 7 days, colony count
Method: Bone marrow cells were washed out of mice femurs. 10^5 cells were incubated at 37° C. and 7% CO2 in McCoy 5A medium (0.3% agar) together with recombinant murine GM-CSF (Genzyme; stem cell colony formation) and the substances (10^−4 to 100 μg/ml). 7 days later, the colonies (<50 cells) and clusters (17-50 cells) were counted.

[2] = system: large-cell human lung tumour xenograft LXFL 529; experiment: In vivo inhibition of tumour growth in the nude mouse model; details: for Survival time: LXFL 529 nude mice, individual animals; for therapeutic efficacy (tumour remission): maximum tolerable dose (MTD) and ½ MTD, LXFL 529
Method: For all in vivo experiments for investigation of the inhibition of tumour growth, athymic nude mice (NMRI nu/nu strain) were used. The selected large-cell lung carcinoma LXFL 529 was grown by serial passage in nude mice. The human origin of the tumour was confirmed by isoenzymatic and immunohistochemical methods.
The tumour was implanted subcutaneously into both flanks of small nu/nu nude mice 6 to 8 weeks old. […] The mice were assigned to the treatment group and the control group (5 mice per group with 8-10 assessable tumours) by randomization.
The size of the tumours was measured in two dimensions by means of a slide gauge. The tumour volume, which correlated well with the cell count, was then used for all evaluations. The volume was calculated according to the formula “length×breadth×breadth/2” ([a×b^2]/2, a and b represent two diameters at right angles).
The values of the relative tumour volume (RTV) were calculated for each individual tumour by dividing the tumour size on day X with the tumour size on day 0 (at the time of randomization). The mean values of the RTV were then used for the further evaluation.
The inhibition of the tumour volume (relative tumour volume of the test group/control group×100, T/C in %) was the final measured value.
The administration of the compounds was carried out intravenously (i.v.), for example on day 0, 1 and 2 after randomization, the total dose per day being split over 2 administrations.

[3] = HT 29 cells, MTT, growth checked after day 6
[4] = B16F10 cells, MTT, growth checked after day 6
[5] = SW 480 cells, MTT, growth checked after day 6
[6] = 16 mg/kg/day i.v., LXFL 529, optimum on day 28

Row | Compound | IC50 (HT 29; Homo sapiens, HT-29, 144 h) [nM] | IC50 (B16F10; Mus musculus, B16-F10, 144 h) [nM] | IC50 (SW 480; Homo sapiens, SW480, 144 h) [nM] | other results
1 | CC[C@@]1(O)C(=O)OCc2c1cc1n(c2=O)Cc2cc3ccccc3nc2-1 [20(S)-Camptothecin, reference compound] | – | – | – | IC50 (HT 29; [3]): 5 nM; IC50 (B16F10; [4]): 20 nM; IC50 (SW 480; [5]): 10 nM; Inhibition of the CSF-induced proliferation of mouse bone marrow stem cells IC50 [1]: 0.05 ng/mL
2 | CC[C@@]1(OC(=O)C(CC(C)C)NC(=O)[C@H](CCCCN)NC(=S)Nc2ccc(OC3O[C@@H](C)[C@@H](O)[C@@H](OC)[C@@H]3O)cc2)C(=O)OCc2c1cc1n(c2=O)Cc2cc3ccccc3nc2-1 (stereo partly drawn) [Example 1, 20(S)-20-O-{N^α-[O-(3-O-Methyl-β-L-fucopyranosyl)-4-hydroxy-phenylamino-thiocarbonyl]-L-lysyl-L/D-leucyl}-camptothecin, hydrochloride] | 40 | 200 | 70 | opt. T/C ([2]; 8 mg/kg/day i.v., LXFL 529, optimum on day 14): 0%; Survival time ([2]; 8 mg/kg/day i.v., hydrochloride): 0 days and >28 days (4×); Relative body weight on day 7 [% of day 0] ([2]; 8 mg/kg/day i.v.): 95 % of day 0; opt. T/C [2, 6]: 0%; Survival time ([2]; 16 mg/kg/day i.v.): >28 days; Relative body weight on day 7 [% of day 0] ([2]; 16 mg/kg/day i.v.): 95 % of day 0; tumour remission (FIG. 1) ([2]; dose range from 16 to 8 mg/kg, therapy schedule day 1-3 i.v., further experiment): long-lasting complete remission; therapeutic efficacy (tumour remission) [2]: complete to marked tumour remission
3 | CCC1(OC(=O)C(NC(=O)[C@H](Cc2c[nH]cn2)NC(=S)Nc2ccc(OC3OC(C)C(O)C(OC)C3O)cc2)C(C)C)C(=O)OCc2c1cc1n(c2=O)Cc2cc3ccccc3nc2-1.Cl (stereo partly drawn) [Example 2, 20(S)-20-O-{N-[O-(3-O-Methyl-β-L-fucopyranosyl)-4-hydroxy-phenylamino-thiocarbonyl]-L-histidyl-L/D-valyl}-camptothecin, hydrochloride] | 40 | 300 | 100 | opt. T/C [2, 6]: 3.3%; Survival time ([2]; 16 mg/kg/day i.v.): >28 days; Relative body weight on day 7 [% of day 0] ([2]; 16 mg/kg/day i.v.): 103 % of day 0; opt. T/C ([2]; 32 mg/kg/day i.v., LXFL 529, optimum on day 21): 0%; Survival time ([2]; 32 mg/kg/day i.v., hydrochloride): >28 days (3×) and 20 days and 1 days; Relative body weight on day 7 [% of day 0] ([2]; 32 mg/kg/day i.v.): 98 % of day 0; therapeutic efficacy (tumour remission) [2]: complete to marked tumour remission
4 | CC[C@@]1(OC(=O)[C@@H](CC(C)C)NC(=O)[C@@H](CCCCN)NC(=S)Nc2ccc(OC3O[C@@H](C)[C@@H](O)[C@@H](OC)[C@@H]3O)cc2)C(=O)OCc2c1cc1n(c2=O)Cc2cc3ccccc3nc2-1 (stereo partly drawn) [Example 3, 20(S)-20-O-{N^α-[O-(3-O-Methyl-β-L-fucopyranosyl)-4-hydroxy-phenylamino-thiocarbonyl]-D-lysyl-D-leucyl}-camptothecin, hydrochloride] | 20 | 500 | 100 | –
5 | CC[C@@]1(OC(=O)[C@@H](CC(C)C)NC(=O)[C@H](CCCN)NC(=S)Nc2ccc(OC3O[C@@H](C)[C@@H](O)[C@@H](OC)[C@@H]3O)cc2)C(=O)OCc2c1cc1n(c2=O)Cc2cc3ccccc3nc2-1 (stereo partly drawn) [Example 4, 20(S)-20-O-{N^α-[O-(3-O-Methyl-β-L-fucopyranosyl)-4-hydroxy-phenylamino-thiocarbonyl]-L-ornithyl-D-leucyl}-camptothecin, hydrochloride] | 20 | 500 | 100 | –
6 | CC[C@@]1(OC(=O)[C@@H](CC(C)C)NC(=O)[C@H](CCCNC(=N)N)NC(=S)Nc2ccc(OC3O[C@@H](C)[C@@H](O)[C@@H](OC)[C@@H]3O)cc2)C(=O)OCc2c1cc1n(c2=O)Cc2cc3ccccc3nc2-1 (stereo partly drawn) [Example 5, 20(S)-20-O-{N^α-[O-(3-O-Methyl-β-L-fucopyranosyl)-4-hydroxy-phenylamino-thiocarbonyl]-L-arginyl-D-leucyl}-camptothecin] | 50 | 200 | 80 | –
7 | CC[C@@]1(OC(=O)[C@@H](CC(C)C)NC(=O)[C@H](CCCCN)NC(=S)Nc2ccc(OC3O[C@@H](C)[C@@H](O)[C@@H](OC)[C@@H]3O)cc2)C(=O)OCc2c1cc1n(c2=O)Cc2cc3ccccc3nc2-1 (stereo partly drawn) [Example 6, 20(S)-20-O-{N^α-[O-(3-O-Methyl-β-L-fuopyranosyl)-4-hydroxy-phenylamino-thiocarbonyl]-L-lysyl-D-leucyl}-camptothecin, hydrochloride] | 30 | 300 | 60 | –
8 | CC[C@@]1(OC(=O)[C@H](CC(C)C)NC(=O)[C@H](CCCCN)NC(=S)Nc2ccc(OC3O[C@@H](C)[C@@H](O)[C@@H](OC)[C@@H]3O)cc2)C(=O)OCc2c1cc1n(c2=O)Cc2cc3ccccc3nc2-1 (stereo partly drawn) [Example 7, 20(S)-20-O-{N^α-O-(3-O-Methyl-β-L-fucopyranosyl)-4-hydroxy-phenylamino-thiocarbonyl]-L-lysyl-L-leucyl}-camptothecin, hydrochloride] | 30 | 20 | 80 | –
9 | CC[C@@]1(OC(=O)[C@@H](NC(=O)[C@H](CCCCN)NC(=S)Nc2ccc(OC3O[C@@H](C)[C@@H](O)[C@@H](OC)[C@@H]3O)cc2)C(C)C)C(=O)OCc2c1cc1n(c2=O)Cc2cc3ccccc3nc2-1 (stereo partly drawn) [Example 8, 20(S)-20-O-{N^α-[-(3-O-Methyl-β-L-fucopyranosyl)-4-hydroxy-phenylamino-thiocarbonyl]-L-lysyl-L-valyl}-camptothecin, hydrochloride] | 100 | 800 | 200 | –
10 | CC[C@@]1(OC(=O)[C@@H](NC(=O)[C@H](Cc2cnc[nH]2)NC(=S)Nc2ccc(O[C@H]3O[C@@H](C)[C@@H](O)[C@@H](OC)[C@@H]3O)cc2)C(C)C)C(=O)OCc2c1cc1n(c2=O)Cc2cc3ccccc3nc2-1.Cl [Example 9, 20(S)-20-O-{N^α-[O-(3-O-Methyl-β-L-fucopyranosyl)-4-hydroxy-phenylamino-thiocarbonyl]-L-histidyl-L-valyl}-camptothecin, hydrochloride] | – | – | – | IC50 (HT 29; [3]): 70 nM; IC50 (B16F10; [4]): 400 nM; IC50 (SW 480; [5]): 200 nM; Inhibition of the CSF-induced proliferation of mouse bone marrow stem cells IC50 [1]: 15 ng/mL
11 | CC[C@@]1(OC(=O)[C@H](CC(C)C)NC(=O)[C@H](CCCNC(=N)N)NC(=S)Nc2ccc(OC3O[C@@H](C)[C@@H](O)[C@@H](OC)[C@@H]3O)cc2)C(=O)OCc2c1cc1n(c2=O)Cc2cc3ccccc3nc2-1 (stereo partly drawn) [Example 10, 20(S)-20-O-{N^α-[O-(3-O-Methyl-β-L-fucopyranosyl)-4-hydrdxy-phenylamino-thiocarbonyl]-L-arginyl-L-leucyl}-camptothecin] | 50 | 300 | 100 | –
